Measurements reported in the supplement of paper PMC10307832.

compound: Cn1c(=O)n(-c2ccc(C(C)(C)C#N)cc2)c2c3cc(-c4cnc5ccccc5c4)ccc3ncc21 [Dactolisib] + CC(=O)Nc1cccc(-n2c(=O)n(C3CC3)c(=O)c3c(Nc4ccc(I)cc4F)n(C)c(=O)c(C)c32)c1 [Trametinib] (partner 0.02 µM); test: relative viability (nuclei count vs DMSO), 5 days (fraction); higher = more cells survive; conditions: first compound 0.2 µM
Summary of the method: (§1)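 Lung cancer cell lines in 1536-well plates got either a single drug or a fixed anchor-drug dose together with five library-drug doses (not always all listed) in √10 steps, by pin tool, on the day after seeding. Nuclei were counted after 5 days, and relative viability is the treated-to-vehicle ratio of nuclei counts. Values are medians of duplicate plates.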

Row | Cell Line | relative viability
1 | PC-3 [JPC-3] | 0.451

compound: Cn1c(=O)n(-c2ccc(C(C)(C)C#N)cc2)c2c3cc(-c4cnc5ccccc5c4)ccc3ncc21 [Dactolisib] + CCNC(=O)c1noc(-c2cc(C(C)C)c(O)cc2O)c1-c1ccc(CN2CCOCC2)cc1 [Luminespib] (partner 0.01 µM); test: as above; conditions: first compound 0.002 µM
Summary of the method: as §1

Row | Cell Line | relative viability
2 | NCI-H1755 | 0.298
3 | NCI-H2023 | 0.643
4 | HCC-15 | 0.38
5 | NCI-H1793 | 0.155
6 | PC-14 | 0.136
7 | EKVX | 0.808
8 | LC-2-ad | 1.14
9 | NCI-H1944 | 0.957
10 | NCI-H1975 | 0.133
11 | RERF-LC-KJ | 1.3
12 | NCI-H358 | 0.399
13 | NCI-H650 | 0.779
14 | PC-3 [JPC-3] | 0.759

same assay, conditions: first compound 0.006325 µM

Row | Cell Line | relative viability
15 | NCI-H1755 | 0.399
16 | NCI-H2023 | 0.562
17 | HCC-15 | 0.303
18 | NCI-H1793 | 0.15
19 | PC-14 | 0.16
20 | EKVX | 0.743
21 | LC-2-ad | 0.923
22 | NCI-H1944 | 0.724
23 | NCI-H1975 | 0.157
24 | RERF-LC-KJ | 1.29
25 | NCI-H358 | 0.289
26 | NCI-H650 | 0.778
27 | PC-3 [JPC-3] | 0.639

same assay, conditions: first compound 0.02 µM

Row | Cell Line | relative viability
28 | NCI-H1755 | 0.418
29 | NCI-H2023 | 0.217
30 | HCC-15 | 0.507
31 | NCI-H1793 | 0.164
32 | PC-14 | 0.172
33 | EKVX | 0.736
34 | LC-2-ad | 0.922
35 | NCI-H1944 | 0.714
36 | NCI-H1975 | 0.181
37 | RERF-LC-KJ | 0.859
38 | NCI-H358 | 0.273
39 | NCI-H650 | 0.787
40 | PC-3 [JPC-3] | 0.683

same assay, conditions: first compound 0.06325 µM

Row | Cell Line | relative viability
41 | NCI-H1755 | 0.417
42 | NCI-H2023 | 0.0703
43 | HCC-15 | 0.173
44 | NCI-H1793 | 0.163
45 | PC-14 | 0.11
46 | EKVX | 0.453
47 | LC-2-ad | 0.551
48 | NCI-H1944 | 0.288
49 | NCI-H1975 | 0.144
50 | RERF-LC-KJ | 0.326
51 | NCI-H358 | 0.203
52 | NCI-H650 | 0.443
53 | PC-3 [JPC-3] | 0.472

same assay, conditions: first compound 0.2 µM

Row | Cell Line | relative viability
54 | NCI-H1755 | 0.359
55 | NCI-H2023 | 0.0888
56 | HCC-15 | 0.142
57 | NCI-H1793 | 0.165
58 | PC-14 | 0.128
59 | EKVX | 0.247
60 | LC-2-ad | 0.524
61 | NCI-H1944 | 0.263
62 | NCI-H1975 | 0.123
63 | RERF-LC-KJ | 0.415
64 | NCI-H358 | 0.111
65 | NCI-H650 | 0.369
66 | PC-3 [JPC-3] | 0.48

compound: Cn1c(=O)n(-c2ccc(C(C)(C)C#N)cc2)c2c3cc(-c4cnc5ccccc5c4)ccc3ncc21 [Dactolisib] + C[C@]1(O)C[C@@H](c2nc(-c3ccc4ccc(-c5ccccc5)nc4c3)c3c(N)nccn32)C1 [Linsitinib] (partner 1 µM); test: as above; conditions: first compound 0.002 µM
Summary of the method: as §1

Row | Cell Line | relative viability
67 | NCI-H1755 | 0.983
68 | NCI-H2023 | 0.697
69 | HCC-15 | 0.976
70 | NCI-H1793 | 0.813
71 | PC-14 | 1.04
72 | EKVX | 0.896
73 | LC-2-ad | 0.722
74 | NCI-H1944 | 1.36
75 | NCI-H1975 | 1.01
76 | RERF-LC-KJ | 0.86
77 | NCI-H358 | 0.848
78 | NCI-H650 | 1.26
79 | PC-3 [JPC-3] | 0.996

same assay, conditions: first compound 0.006325 µM

Row | Cell Line | relative viability
80 | NCI-H1755 | 0.971
81 | NCI-H2023 | 0.523
82 | HCC-15 | 0.864
83 | NCI-H1793 | 0.559
84 | PC-14 | 1.02
85 | EKVX | 0.908
86 | NCI-H1944 | 1.17
87 | NCI-H1975 | 0.847
88 | RERF-LC-KJ | 0.908
89 | NCI-H358 | 0.641
90 | NCI-H650 | 0.752
91 | PC-3 [JPC-3] | 0.984

same assay, conditions: first compound 0.02 µM

Row | Cell Line | relative viability
92 | NCI-H1755 | 0.989
93 | NCI-H2023 | 0.622
94 | HCC-15 | 0.873
95 | NCI-H1793 | 0.321
96 | PC-14 | 0.945
97 | EKVX | 0.962
98 | LC-2-ad | 0.751
99 | NCI-H1944 | 1.06
100 | NCI-H1975 | 0.551
101 | RERF-LC-KJ | 0.849
102 | NCI-H358 | 0.549
103 | NCI-H650 | 0.697
104 | PC-3 [JPC-3] | 1.03

same assay, conditions: first compound 0.06325 µM

Row | Cell Line | relative viability
105 | NCI-H1755 | 0.763
106 | NCI-H2023 | 0.154
107 | HCC-15 | 0.441
108 | NCI-H1793 | 0.183
109 | PC-14 | 0.644
110 | EKVX | 0.682
111 | LC-2-ad | 0.488
112 | NCI-H1944 | 0.524
113 | NCI-H1975 | 0.32
114 | RERF-LC-KJ | 0.646
115 | NCI-H358 | 0.293
116 | NCI-H650 | 0.576
117 | PC-3 [JPC-3] | 0.816

same assay, conditions: first compound 0.2 µM

Row | Cell Line | relative viability
118 | NCI-H1755 | 0.622
119 | NCI-H2023 | 0.133
120 | HCC-15 | 0.367
121 | NCI-H1793 | 0.158
122 | PC-14 | 0.407
123 | EKVX | 0.327
124 | LC-2-ad | 0.565
125 | NCI-H1944 | 0.428
126 | NCI-H1975 | 0.256
127 | RERF-LC-KJ | 0.495
128 | NCI-H358 | 0.211
129 | NCI-H650 | 0.415
130 | PC-3 [JPC-3] | 0.639
